Results reported in US20150231077A1, “AMINE PASSIVATED NANOPARTICLES FOR CANCER TREATMENT AND IMAGING” (THE CLEVELAND CLINIC FOUNDATION, priority 2014, published 2015).
Entries after “also recorded” stand apart in the source; their conditions may differ.

What was measured:
[1] = system: human normal hematopoietic stem/progenitor cells (HSPCs); test: Normal HSPC growth curves; format: cell-based; conditions: 1, 2 and 5 nM
Experimental: In order to evaluate the efficacy of Au:MTX in vitro, a human AML cell line THP-1 and human normal hematopoietic stem/progenitor cells (HSPCs) were used. HSPCs were isolated from umbilical cord blood via a CD34+ magnetic cell sorting (CD34 MicroBead Kit #130-046-702, Miltenyl Biotec, Auburn, Calif.). THP-1 cells were cultured in Roswell Park Memorial Institute 1640 (RPMI, Life Technologies, Carlsbad, Calif.) with 10% fetal bovine serum (FBS, Life Technologies), and HSPCs were cultured in Iscove's Modified Dulbecco's Medium (IMDM, Life Technologies) with 10% FBS and cytokines (10 ng/mL of SCF, TPO, and FLT3; 5 ng/mL of IL-3 and IL-6, PeproTech, Rockey Hill, N.J.), respectively, using 24-well cell culture plates with 0.7 mL of culture media per well (at 37° C. with 5% CO2 and >95% humidity). Cell viability was confirmed to be >95% using cell viability analyzer (Vi-Cell, Beckman Coulter, Brea, Calif.) immediately before the experiments. Then the cells were treated with phosphate buffer saline (PBS, Life Technologies), MTX, aqueous solutions of equimolar Au:MTX, and/or equimolar Au:FOL (folic acid-passivated Au nanoparticles). Cell cultures were split two-fold after 72 hours by replenishing each well with fresh media. Cell density and viability were measured every 24 hours using the cell viability analyzer. […]

[2] = system: human AML cell line THP-1; test: THP-1 growth curves (cell density and viability); format: cell-based; conditions: 1, 2 and 5 nM
Experimental: In order to evaluate the efficacy of Au:MTX in vitro, a human AML cell line THP-1 and human normal hematopoietic stem/progenitor cells (HSPCs) were used. HSPCs were isolated from umbilical cord blood via a CD34+ magnetic cell sorting (CD34 MicroBead Kit #130-046-702, Miltenyl Biotec, Auburn, Calif.). […] Cell density and viability were measured every 24 hours using the cell viability analyzer. […]
The inventors characterized Au:MTX as drug delivery vehicles and evaluated in vitro therapeutic effects. Au:MTX was purified via sets of centrifugal precipitations, and the Au-to-MTX molar ratio (drug loading onto Au nanoparticle) was measured by elemental analyses (carbon-hydrogen-nitrogen analysis, or CHN; and inductively coupled plasma mass spectrometry, or ICP-MS). […] Au-to-MTX molar ratio was determined as [Au]:[MTX]=9.8:1, i.e. one nanoparticle on average carried ˜75 MTX molecules (assuming ˜1.44 Å as atomic radius of Au and uniform surface coverage, as illustrated in FIG. 1(c)). […] Drug delivery by Au:MTX was evaluated using a human AML cell line THP-1. […] Au:FOL, with the diameter 2.6±1.1 nm measured by TEM, is structurally similar to Au:MTX and was therefore used as an “Au nanoparticle without active drug” control. […]

[3] = Formation and TEM size of amine-passivated Au nanoparticles; format: physicochemical; conditions: size of the Au nanoparticle formed with the named amine compound as ligand, same synthesis conditions
Experimental: In a typical synthesis of water soluble nanoparticles Au:MTX, 5 μmol of HAuCl4 and 25 μmol of MTX were dispersed with brief sonication in 2 mL methanol in a tri-neck 15 mL flask on ice water (0° C.) bath under Ar purge. After 1 hour of stirring at 700 rpm, 0.5 mL of freshly prepared 0.11 M NaBH4 on ice was added drop-wise at 1200 rpm. After ˜1 hour, stirring speed was reduced to 700 rpm and kept for additional ˜30 minutes.
The reacted solution was centrifuged at 4° C. at 16,100×g for 15 minutes twice, with the addition of 4:1 (volume) mixture of methanol and water, and ethanol respectively. This set of two step centrifugation was repeated at least 3 times, and then the precipitate was re-dispersed in water to obtain aqueous solutions. The aqueous solution was further purified using 3 k ultra centrifugal filter (Millipore, Billerica, Mass.). […]

Compound	nanoparticle (formation of monolayer-protected Au nanoparticles) [3]	HSPC growth [1]	THP-1 cell growth [2]
Nc1ncnc2c1ncn2[C@@H]1O[C@H](COP(=O)(O)OP(=O)(O)O)[C@@H](O)[C@H]1O [adenosine diphosphate]	2.3 ± 0.7 nm		
Nc1ncnc2c1ncn2[C@@H]1O[C@H](COP(=O)(O)O)[C@@H](O)[C@H]1O [adenosine monophosphate]	did not form		
Nc1ncnc2c1ncn2[C@@H]1O[C@H](COP(=O)(O)OP(=O)(O)OP(=O)(O)O)[C@@H](O)[C@H]1O [adenosine triphosphate]	2.1 ± 0.7 nm		
Nc1ccn([C@@H]2O[C@H](COP(=O)(O)OP(=O)(O)O)[C@@H](O)[C@H]2O)c(=O)n1 [cytidine diphosphate]	2.5 ± 0.8 nm		
Nc1ccn([C@@H]2O[C@H](COP(=O)(O)O)[C@@H](O)[C@H]2O)c(=O)n1 [cytidine monophosphate]	4.5 ± 2.8 nm		
Nc1ccn([C@@H]2O[C@H](COP(=O)(O)OP(=O)(O)OP(=O)(O)O)[C@@H](O)[C@H]2O)c(=O)n1 [cytidine triphosphate]	2.6 ± 0.9 nm		
COc1cccc2c1C(=O)c1c(O)c3c(c(O)c1C2=O)C[C@@](O)(C(=O)CO)C[C@@H]3O[C@H]1C[C@H](N)[C@H](O)[C@H](C)O1 [doxorubicin, reference compound]	3.3 ± 1.2 nm		
Cc1cc2nc3c(=O)[nH]c(=O)nc-3n(C[C@H](O)[C@H](O)[C@H](O)COP(=O)(O)OP(=O)(O)OC[C@H]3O[C@@H](n4cnc5c(N)ncnc54)[C@H](O)[C@@H]3O)c2cc1C [flavin adenine dinucleotide (FAD), flavin adenine dinucleotide]	4.2 ± 1.6 nm		
Nc1nc2c(ncn2[C@@H]2O[C@H](COP(=O)(O)OP(=O)(O)O)[C@@H](O)[C@H]2O)c(=O)[nH]1 [guanosine diphosphate]	2.4 ± 1.0 nm		
Nc1nc2c(ncn2[C@@H]2O[C@H](COP(=O)(O)O)[C@@H](O)[C@H]2O)c(=O)[nH]1 [guanosine monophosphate]	2.6 ± 1.0 nm		
Nc1nc2c(ncn2[C@@H]2O[C@H](COP(=O)(O)OP(=O)(O)OP(=O)(O)O)[C@@H](O)[C@H]2O)c(=O)[nH]1 [guanosine triphosphate]	2.3 ± 0.7 nm		
Nc1nc2c(ncn2[C@@H]2O[C@H](CO)[C@@H](O)[C@H]2O)c(=O)[nH]1 [guanosine]	2.7 ± 1.6 nm		
NCCCC[C@H](N)C(=O)O [lysine]	did not form		
CSCC[C@H](N)C(=O)O [methionine]	did not form		
COC(=O)CCC(NC(=O)c1ccc(N(C)Cc2cnc3nc(N)nc(N)c3n2)cc1)C(=O)OC (stereo not drawn) [methotrexate dimethyl ester]	2.2 ± 0.6 nm		
[H]/N=C(/N)N[C@H]1[C@H](O)[C@@H](O)[C@H](O[C@@H]2O[C@@H](C)[C@](O)(C=O)[C@H]2O[C@@H]2O[C@@H](CO)[C@H](O)[C@@H](O)[C@@H]2NC)[C@@H](N/C(N)=N\[H])[C@@H]1O [streptomycin, reference compound]	2.5 ± 1.2 nm		

Now from value to compound, other results behind:

nanoparticle (formation of monolayer-protected Au nanoparticles) [3]	Compound	HSPC growth [1]	THP-1 cell growth [2]
2.6 ± 0.7 nm	CN(Cc1cnc2nc(N)nc(N)c2n1)c1ccc(C(=O)N[C@@H](CCC(=O)O)C(=O)O)cc1 [MTX, methotrexate]	not significantly affected; also recorded: does not significantly affect	dose-dependent THP-1 growth suppression
did not form	Nc1ncnc2c1ncn2[C@@H]1O[C@H](CO)[C@@H](O)[C@H]1O [adenosine]		
did not form	Nc1ncnc2c1ncn2[C@H]1C[C@H](O)[C@@H](CO)O1 [deoxyadenosine]		
did not form	Nc1ccn([C@H]2C[C@H](O)[C@@H](CO)O2)c(=O)n1 [deoxycytidine]		
did not form	Nc1nc2c(ncn2[C@H]2C[C@H](O)[C@@H](CO)O2)c(=O)[nH]1 [deoxyguanosine]		
did not form	NCCc1ccc(O)c(O)c1 [dopamine, reference compound]		
2.6 ± 1.1 nm	Nc1nc2ncc(CNc3ccc(C(=O)N[C@@H](CCC(=O)O)C(=O)O)cc3)nc2c(=O)[nH]1 [folic acid]		
did not form	Cc1ncc(C[n+]2csc(CCO)c2C)c(N)n1 [thiamine]		
3.1 ± 1.3 nm	Cc1ncc(C[n+]2csc(CCOP(=O)(O)OP(=O)(O)O)c2C)c(N)n1 [thyamine pyrophosphate]		
